According to patent publication US20110003314A1, “Hapten, Immunogens and Derivatives of Ascomycin Useful for Preparation of Antibodies and Immunoassays” (MICROGENICS CORPORATION, priority 2004, published 2011):

Tests used:
[1] = tested on: monoclonal antibody produced by hybridoma line 28E2; assay: CEDIA tacrolimus assay specificity (cross-reactivity); assay type: binding, mice; settings: for Concentration Measured: added to whole blood, concentration tested 20 ng/ml
Method: Antibodies obtained using any of the aforementioned techniques are screened or purified not only for their ability to bind specifically with tacrolimus, but also for low cross-reactivity with potential interfering substances. “Cross reactivity” is determined in a quantitative immunoassay by establishing a standard curve using known dilutions of tacrolimus or ascomycin. […] The percent (%) cross-reactivity is the measured concentration divided by the tested concentration multiplied by 100.
If tacrolimus is present in the sample, it binds to the antibody, leaving the ED portion of the competing conjugate free to restore enzyme activity upon complementation reaction with enzyme acceptor (EA) fragments in the assay reaction mixture. The active enzyme is then capable of producing a quantifiable reaction product when exposed to appropriate substrate. If drug is not present in the sample, the antibody binds to the ED-drug conjugate inhibiting association of the ED fragments with the EA fragments, thus inhibiting restoration of enzyme activity. The amount of reaction product and resultant absorbance change are proportional to the amount of drug in the sample.
Each of four naturally occurring metabolites of tacrolimus, at a concentration of approximately 20 ng/ml, was added separately to a whole blood specimen. […] The cross reactivity of the metabolites was calculated as:
(measured concentration)/20ng/ml×100%
In another experiment, commonly co-administered immunosuppressants were added to whole blood and tested for cross-reactivity.

[2] = tested on: antibodies that bind rapamycin; settings: taught by Sedrani et al.; cited from earlier work
[3] = tacrolimus metabolites, 20 ng/ml in whole blood, (measured concentration)/20 ng/ml x 100%
[4] = other immunosuppressants in whole blood, tested concentration 100,000 ng/ml

C=CCC1C=C(C)CC(C)CC(OC)C2OC(O)(C(=O)C(=O)N3CCCCC3C(=O)OC(C(C)=CC3CCC(O)C(O)C3)C(C)C(O)CC1=O)C(C)CC2O (stereo not drawn) [13,31-O-didemethyl-T, 13,31-O-didemethyl tacrolimus]
Concentration Measured [1]: 0.57 ng/mL | % Cross-Reactivity [1, 3]: 2.9%

C=CCC1C=C(C)CC(C)CC(OC)C2OC(O)(C(=O)C(=O)N3CCCCC3C(=O)OC(C(C)=CC3CCC(O)C(OC)C3)C(C)C(O)CC1=O)C(C)CC2O (stereo not drawn) [13-O-demethyl-T, 13-O-demethyl tacrolimus]
Concentration Measured [1]: 7.5 ng/mL | % Cross-Reactivity [1, 3]: 37.7%

C=CCC1C=C(C)CC(C)CC(O)C2OC(O)(C(=O)C(=O)N3CCCCC3C(=O)OC(C(C)=CC3CCC(O)C(OC)C3)C(C)C(O)CC1=O)C(C)CC2OC (stereo not drawn) [15-O-demethyl-T, 15-O-demethyl tacrolimus]
Concentration Measured [1]: 0.95 ng/mL | % Cross-Reactivity [1, 3]: 4.7%

C=CCC1C=C(C)CC(C)CC(OC)C2OC(O)(C(=O)C(=O)N3CCCCC3C(=O)OC(C(C)=CC3CCC(O)C(O)C3)C(C)C(O)CC1=O)C(C)CC2OC (stereo not drawn) [31-O-demethyl-T, 31-O-demethyl tacrolimus]
Concentration Measured [1]: 0.98 ng/mL | % Cross-Reactivity [1, 3]: 4.9%

C[C@]12CCC(=O)C=C1CC[C@@H]1[C@@H]2[C@@H](O)C[C@@]2(C)[C@H]1CC[C@]2(O)C(=O)CO [Hydrocorticol]
% Cross-Reactivity [1, 4]: 0.0%

COc1c(C)c2c(c(O)c1C/C=C(\C)CCC(=O)O)C(=O)OC2 [Mycophenolic acid]
% Cross-Reactivity [1, 4]: 0.0%

C[C@]12C=CC(=O)C=C1CC[C@@H]1[C@@H]2[C@@H](O)C[C@@]2(C)[C@H]1CC[C@]2(O)C(=O)CO [Prednisolone]
% Cross-Reactivity [1, 4]: 0.0%

C[C@]12C=CC(=O)C=C1CC[C@@H]1[C@@H]2C(=O)C[C@@]2(C)[C@H]1CC[C@]2(O)C(=O)CO [Prednisone]
% Cross-Reactivity [1, 4]: 0.0%

C=CC[C@@H]1/C=C(\C)C[C@H](C)C[C@H](OC)[C@H]2O[C@@](O)(C(=O)C(=O)N3CCCC[C@H]3C(=O)O[C@H](/C(C)=C/[C@@H]3CC[C@@H](O)[C@H](OC)C3)[C@H](C)[C@@H](O)CC1=O)[C@H](C)C[C@@H]2OC [tacrolimus]
Concentration Measured [1]: 20.0 ng/mL | % Cross-Reactivity [1, 3]: 100.0% | cross-reactivity of rapamycin-binding antibodies [2]: greater than 50%
